Test results reported in PubChem BioAssay (NCI).
“And” between values parts separate entries of the source, which are not always exact repeats. Identical values can stand only once.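 Five concentrations, 48 hours, 96-well plates. At the GI50, growth is halved. At the TGI there is no net growth.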

system: RXF 393 renal; assay: NCI anticancer screen, dose series, 48 h

Row | SMILES | GI50 [µM] | TGI
1 | COc1ccc(/C(=N/Nc2ccc([N+](=O)[O-])cc2)Sc2cc(Cl)c(C)cc2S(N)(=O)=O)cc1 | 4.3 | 11.5 µM
2 | NC(N)=NC(N)=Nc1cc2ccccc2c2ccccc12 | 10.6 | 24.1 µM
3 | CC12CCCC(CC(=O)c3[nH]c4ccccc4c31)C2 (stereo not drawn) | 0.629 | 4.88 µM
4 | CN1C(NC(=O)c2ccc(Cl)nc2)=NS(=O)(=O)c2cc(Cl)ccc21 | > 100 | > 100 µM
5 | Cc1cc(C2CCCCC2)n(O)c(=O)c1 | 3.02 | > 100 µM and 97.2 µM
6 | CN(C)C(=S)SN(C)C(=O)Nc1ccccc1 |  | 6.31 µM
7 | Cc1[nH]c(N=Nc2ccccc2)nc1N=Nc1ccccc1 | 0.552 | 3.43 µM
8 | COc1ccc(-c2cc3c(nn2)-c2ccccc2C3=O)cc1 | > 100 | > 100 µM
9 | N#Cc1cnsc1 |  | > 100 µM
10 | COc1ccc(S(=O)(=O)N(Cc2ccc3c(n2)C=CC(C)(C)O3)C2CCC2)cc1OC | < 0.01 | 0.222 µM
11 | C[C@]12CC[C@@H]3c4ccc(O)cc4CC[C@H]3[C@@H]1CC[C@@H]2NS(=O)(=O)c1ccc(C(F)(F)F)cc1 | 1.63 | 3.13 µM
12 | COc1ccc(C2CC(=O)c3c(O)c(OC)c(OC)c(OC)c3O2)c(O)c1 (stereo not drawn) | 0.243 | 25.5 µM
13 | CC(=O)c1ccc(NC(=O)/C(Cc2ccccn2)=N/NC(=O)C[N+](C)(C)C)cc1 |  | > 100 µM
14 | O=C(CCCSc1nc(-c2ccc(Cl)cc2)cc(-c2ccc(Cl)cc2)n1)NO | 0.347 | 1.86 µM

system: SR leukemia; assay: NCI anticancer screen, dose series, 48 h

Row | SMILES | GI50 [µM] | TGI [µM]
15 | COc1ccc(/C(=N/Nc2ccc([N+](=O)[O-])cc2)Sc2cc(Cl)c(C)cc2S(N)(=O)=O)cc1 | 2.17 | 5.41
16 | NC(N)=NC(N)=Nc1cc2ccccc2c2ccccc12 | 2.68 | 9.34
17 | CC12CCCC(CC(=O)c3[nH]c4ccccc4c31)C2 (stereo not drawn) | 0.238 | 66.1
18 | CN1C(NC(=O)c2ccc(Cl)nc2)=NS(=O)(=O)c2cc(Cl)ccc21 | > 100 | > 100
19 | Cc1cc(C2CCCCC2)n(O)c(=O)c1 | 0.66 | > 100
20 | CN(C)C(=S)SN(C)C(=O)Nc1ccccc1 |  | 72.3
21 | Cc1[nH]c(N=Nc2ccccc2)nc1N=Nc1ccccc1 | 0.418 | 
22 | COc1ccc(-c2cc3c(nn2)-c2ccccc2C3=O)cc1 | 14.7 | > 100
23 | N#Cc1cnsc1 |  | > 100
24 | COc1ccc(S(=O)(=O)N(Cc2ccc3c(n2)C=CC(C)(C)O3)C2CCC2)cc1OC | < 0.01 | 0.0324
25 | C[C@]12CC[C@@H]3c4ccc(O)cc4CC[C@H]3[C@@H]1CC[C@@H]2NS(=O)(=O)c1ccc(C(F)(F)F)cc1 | 2.43 | 7.5
26 | COc1ccc(C2CC(=O)c3c(O)c(OC)c(OC)c(OC)c3O2)c(O)c1 (stereo not drawn) | 0.0582 | 27
27 | CC(=O)c1ccc(NC(=O)/C(Cc2ccccn2)=N/NC(=O)C[N+](C)(C)C)cc1 |  | > 100
28 | O=C(CCCSc1nc(-c2ccc(Cl)cc2)cc(-c2ccc(Cl)cc2)n1)NO | 0.339 | 13

system: OVCAR-4 ovarian; assay: NCI anticancer screen, dose series, 48 h

Row | SMILES | GI50 [µM] | TGI [µM]
29 | COc1ccc(/C(=N/Nc2ccc([N+](=O)[O-])cc2)Sc2cc(Cl)c(C)cc2S(N)(=O)=O)cc1 | 2.61 | 7.11
30 | NC(N)=NC(N)=Nc1cc2ccccc2c2ccccc12 | 10.1 | 25.9
31 | CC12CCCC(CC(=O)c3[nH]c4ccccc4c31)C2 (stereo not drawn) | 9.74 | > 90.8
32 | CN1C(NC(=O)c2ccc(Cl)nc2)=NS(=O)(=O)c2cc(Cl)ccc21 | > 100 | > 100
33 | Cc1cc(C2CCCCC2)n(O)c(=O)c1 | 0.75 | > 100
34 | CN(C)C(=S)SN(C)C(=O)Nc1ccccc1 |  | 53.5
35 | Cc1[nH]c(N=Nc2ccccc2)nc1N=Nc1ccccc1 | 3.06 | 55.4
36 | COc1ccc(-c2cc3c(nn2)-c2ccccc2C3=O)cc1 | > 100 | > 100
37 | N#Cc1cnsc1 |  | > 100
38 | COc1ccc(S(=O)(=O)N(Cc2ccc3c(n2)C=CC(C)(C)O3)C2CCC2)cc1OC | < 0.01 | 0.266
39 | C[C@]12CC[C@@H]3c4ccc(O)cc4CC[C@H]3[C@@H]1CC[C@@H]2NS(=O)(=O)c1ccc(C(F)(F)F)cc1 | 1.42 | 2.78
40 | COc1ccc(C2CC(=O)c3c(O)c(OC)c(OC)c(OC)c3O2)c(O)c1 (stereo not drawn) | 1.18 | 66.9
41 | CC(=O)c1ccc(NC(=O)/C(Cc2ccccn2)=N/NC(=O)C[N+](C)(C)C)cc1 |  | > 100
42 | O=C(CCCSc1nc(-c2ccc(Cl)cc2)cc(-c2ccc(Cl)cc2)n1)NO | 0.603 | 14.1

system: SN12C renal; assay: NCI anticancer screen, dose series, 48 h

Row | SMILES | GI50 [µM] | TGI [µM]
43 | COc1ccc(/C(=N/Nc2ccc([N+](=O)[O-])cc2)Sc2cc(Cl)c(C)cc2S(N)(=O)=O)cc1 | 2.2 | 4.29
44 | NC(N)=NC(N)=Nc1cc2ccccc2c2ccccc12 | 5.3 | 19.9
45 | CC12CCCC(CC(=O)c3[nH]c4ccccc4c31)C2 (stereo not drawn) | 1.91 | 20.3
46 | CN1C(NC(=O)c2ccc(Cl)nc2)=NS(=O)(=O)c2cc(Cl)ccc21 | > 100 | > 100
47 | Cc1cc(C2CCCCC2)n(O)c(=O)c1 | 1.45 | > 100
48 | CN(C)C(=S)SN(C)C(=O)Nc1ccccc1 |  | 89.3
49 | Cc1[nH]c(N=Nc2ccccc2)nc1N=Nc1ccccc1 | 3.51 | 22.4
50 | COc1ccc(-c2cc3c(nn2)-c2ccccc2C3=O)cc1 | > 100 | > 100
51 | N#Cc1cnsc1 |  | > 100
52 | COc1ccc(S(=O)(=O)N(Cc2ccc3c(n2)C=CC(C)(C)O3)C2CCC2)cc1OC | < 0.01 | 0.161
53 | C[C@]12CC[C@@H]3c4ccc(O)cc4CC[C@H]3[C@@H]1CC[C@@H]2NS(=O)(=O)c1ccc(C(F)(F)F)cc1 | 1.75 | 3.36
54 | COc1ccc(C2CC(=O)c3c(O)c(OC)c(OC)c(OC)c3O2)c(O)c1 (stereo not drawn) | 1.23 | 70.4
55 | CC(=O)c1ccc(NC(=O)/C(Cc2ccccn2)=N/NC(=O)C[N+](C)(C)C)cc1 |  | > 100
56 | O=C(CCCSc1nc(-c2ccc(Cl)cc2)cc(-c2ccc(Cl)cc2)n1)NO | 0.513 | 7.22

system: U251 CNS; assay: NCI anticancer screen, dose series, 48 h

Row | SMILES | GI50 [µM] | TGI [µM]
57 | COc1ccc(/C(=N/Nc2ccc([N+](=O)[O-])cc2)Sc2cc(Cl)c(C)cc2S(N)(=O)=O)cc1 | 7.13 | 24.3
58 | NC(N)=NC(N)=Nc1cc2ccccc2c2ccccc12 | 4.83 | 18.1
59 | CC12CCCC(CC(=O)c3[nH]c4ccccc4c31)C2 (stereo not drawn) | 0.689 | 34.7
60 | CN1C(NC(=O)c2ccc(Cl)nc2)=NS(=O)(=O)c2cc(Cl)ccc21 | > 100 | > 100
61 | Cc1cc(C2CCCCC2)n(O)c(=O)c1 | 1.13 | 
62 | CN(C)C(=S)SN(C)C(=O)Nc1ccccc1 |  | > 93.8
63 | Cc1[nH]c(N=Nc2ccccc2)nc1N=Nc1ccccc1 | 2.83 | > 37.5
64 | COc1ccc(-c2cc3c(nn2)-c2ccccc2C3=O)cc1 | > 100 | > 100
65 | N#Cc1cnsc1 |  | > 100
66 | COc1ccc(S(=O)(=O)N(Cc2ccc3c(n2)C=CC(C)(C)O3)C2CCC2)cc1OC | < 0.01 | 0.883
67 | C[C@]12CC[C@@H]3c4ccc(O)cc4CC[C@H]3[C@@H]1CC[C@@H]2NS(=O)(=O)c1ccc(C(F)(F)F)cc1 | 1.75 | 3.3
68 | COc1ccc(C2CC(=O)c3c(O)c(OC)c(OC)c(OC)c3O2)c(O)c1 (stereo not drawn) | 0.0985 | 36.1
69 | CC(=O)c1ccc(NC(=O)/C(Cc2ccccn2)=N/NC(=O)C[N+](C)(C)C)cc1 |  | > 100
70 | O=C(CCCSc1nc(-c2ccc(Cl)cc2)cc(-c2ccc(Cl)cc2)n1)NO | 0.693 | 13
